Legend:
[1] = system: luciferase expression in the liver; assay: In vivo luciferase mRNA expression in mouse liver with lipid nanoparticle formulations; set-up: species or system C57BL/6 mice; conditions: tail vein injection, liver 4 hours after administration, FLuc mRNA; for Liver Luc @ 0.3 mg/kg dose / Liver Luc @ 0.3 mg/kg (ng luc/g liver): 0.3 mg mRNA/kg; for Liver Luc @ 0.3 mg/kg dose / Liver Luc @ 1.0 mg/kg dose: LNP 50% cationic lipid/10% DSPC/38.5% cholesterol/1.5% PEG-DMG; for Liver Luc @ 1.0 mg/kg dose / Liver Luc @ 1.0 mg/kg (ng luc/g liver): 1.0 mg mRNA/kg; for Liver Luc @ 0.3 mg/kg (ng luc/g liver) / Liver Luc @ 1.0 mg/kg (ng luc/g liver): LNP 50% cationic lipid/10% DSPC/38.5% cholesterol/1.5% PEG-DMA
Description: Cationic lipid (MC3), DSPC, cholesterol and PEG-lipid were solubilized in ethanol at a molar ratio of 50:10:38.5:1.5. Lipid nanoparticles (LNP) were prepared at a total lipid to mRNA weight ratio of approximately 10:1 to 30:1. Briefly, the mRNA was diluted to 0.2 mg/mL in 10 to 50 mM citrate buffer, pH 4. Syringe pumps were used to mix the ethanolic lipid solution with the mRNA aqueous solution at a ratio of about 1:5 to 1:3 (vol/vol) with total flow rates above 15 ml/min. The ethanol was then removed and the external buffer replaced with PBS by dialysis. Finally, the lipid nanoparticles were filtered through a 0.2 μm pore sterile filter. Lipid nanoparticle particle size was 70-90 nm diameter as determined by quasi-elastic light scattering using a Nicomp 370 submicron particle sizer (Santa Barbara, Calif.).
Studies were performed in 6-8 week old female C57BL/6 mice (Charles River) according to guidelines established by an institutional animal care committee (ACC) and the Canadian Council on Animal Care (CCAC). Varying doses of mRNA-lipid nanoparticle were systemically administered by tail vein injection and animals euthanized at specific time points (1, 2, 4, 8 and 24 hrs) post-administration. Liver and spleen were collected in pre-weighted tubes, weights determined, immediately snap frozen in liquid nitrogen and stored at −80° C. until processing for analysis.
For liver, approximately 50 mg was dissected for analyses in a 2 mL FastPrep tubes (MP Biomedicals, Solon Ohio). ¼″ ceramic sphere (MP Biomedicals) was added to each tube and 500 μL of Glo Lysis Buffer—GLB (Promega, Madison Wis.) equilibrated to room temperature was added to liver tissue. Liver tissues were homogenized with the FastPrep24 instrument (MP Biomedicals) at 2×6.0 m/s for 15 seconds. Homogenate was incubated at room temperature for 5 minutes prior to a 1:4 dilution in GLB and assessed using SteadyGlo Luciferase assay system (Promega). Specifically, 50 μL of diluted tissue homogenate was reacted with 50 μL of SteadyGlo substrate, shaken for 10 seconds followed by 5 minute incubation and then quantitated using a CentroXS^3 LB 960 luminometer (Berthold Technologies, Germany). The amount of protein assayed was determined by using the BCA protein assay kit (Pierce, Rockford Ill.). Relative luminescence units (RLU) were then normalized to total ug protein assayed. To convert RLU to ng luciferase a standard curve was generated with QuantiLum Recombinant Luciferase (Promega). Based in the data provided in FIG. 1, the four-hour time point was chosen for efficacy evaluation of the lipid formulations (see Example 29).
The FLuc mRNA (L-6107) from Trilink Biotechnologies will express a luciferase protein, originally isolated from the firefly, Photinus pyralis. FLuc is commonly used in mammalian cell culture to measure both gene expression and cell viability. It emits bioluminescence in the presence of the substrate, luciferin. This capped and polyadenylated mRNA is fully substituted with 5-methylcytidine and pseudouridine.
The cationic lipids shown in Table 2 have previously been tested with nucleic acids. For comparative purposes, these lipids were also used to formulate lipid nanoparticles containing the FLuc mRNA (L-6107) using an in line mixing method, as described in example 28 and in PCT/US10/22614, which is hereby incorporated by reference in its entirety. […] Relative activity was determined by measuring luciferase expression in the liver 4 hours following administration via tail vein injection as described in example 28. The activity was compared at a dose of 0.3 and 1.0 mg mRNA/kg and expressed as ng luciferase/g liver measured 4 hours after administration, as described in Example 28. […]

[2] = pKa of formulated cationic lipids in lipid nanoparticles (TNS fluorescence assay); type: physicochemical; conditions: probe 2-(p-toluidino)-6-napthalene sulfonic acid (TNS), 1 µM final; formulated in LNP cationic lipid/DSPC/cholesterol/PEG-lipid 50/10/38.5/1.5 mol %; pH of half-maximal TNS fluorescence
Description: As described elsewhere, the pKa of formulated cationic lipids is correlated with the effectiveness of LNPs for delivery of nucleic acids (see Jayaraman et al, Angewandte Chemie, International Edition (2012), 51(34), 8529-8533; Semple et al, Nature Biotechnology 28, 172-176 (2010)). The preferred range of pKa is ˜5 to ˜7. […] Lipid nanoparticles comprising of cationic lipid/DSPC/cholesterol/PEG-lipid (50/10/38.5/1.5 mol %) in PBS at a concentration of 0.4 mM total lipid are prepared using the in-line process as described in Example 28. TNS was prepared as a 100 μM stock solution in distilled water. Vesicles were diluted to 24 μM lipid in 2 mL of buffered solutions containing, 10 mM HEPES, 10 mM MES, 10 mM ammonium acetate, 130 mM NaCl, where the pH ranged from 2.5 to 11. An aliquot of the TNS solution was added to give a final concentration of 1 μM and following vortex mixing fluorescence intensity was measured at room temperature in a SLM Aminco Series 2 Luminescence Spectrophotometer using excitation and emission wavelengths of 321 nm and 445 nm. A sigmoidal best fit analysis was applied to the fluorescence data and the pKa was measured as the pH giving rise to half-maximal fluorescence intensity (see FIG. 2).

Row | pKa [2] | SMILES | Liver Luc @ 0.3 mg/kg dose [1] | Liver Luc @ 1.0 mg/kg dose [1] | Liver Luc @ 0.3 mg/kg (ng luc/g liver) [1] | Liver Luc @ 1.0 mg/kg (ng luc/g liver) [1]
1 | 5.64 | CCCCC/C=C\C/C=C\CCCCCCCCC(CCCCCCCC/C=C\C/C=C\CCCCC)N(CCCCCCCCC)CCCN(C)C [Compound 1] |  |  | 54 ± 8 ng luc/g liver | 226 ± 20 ng luc/g liver
2 | 6.27 | CCCCC/C=C\C/C=C\CCCCCCCCC(CCCCCCCC/C=C\C/C=C\CCCCC)N(CCCN(C)C)C(=O)CCCCCCCC [Compound 5] |  |  | 603 ± 167 ng luc/g liver | 3640 ± 601 ng luc/g liver
3 | 6.14 | CCCCC/C=C\C/C=C\CCCCCCCCC(CCCCCCCC/C=C\C/C=C\CCCCC)N(CCCN(C)C)C(=O)CCCCCCC/C=C\C/C=C\CCCCC [Compound 6] |  |  | 19 ± 4 ng luc/g liver | 211 ± 119 ng luc/g liver
4 | 5.93 | CCCCC/C=C\C/C=C\CCCCCCCCC(CCCCCCCC/C=C\C/C=C\CCCCC)N(CCCN(C)C)C(=O)C(CC)CCCCC (centres unmarked) [Compound 7] |  |  | 833 ± 401 ng luc/g liver | 8859 ± 780 ng luc/g liver
5 | 5.35 | CCCCC/C=C\C/C=C\CCCCCCCCC(CCCCCCCC/C=C\C/C=C\CCCCC)N(CCCN(C)C)C(=O)C(CCCCCC)CCCCCCCC (centres unmarked) [Compound 8] |  |  | 105 ± 98 ng luc/g liver | 1238 ± 153 ng luc/g liver
6 | 5.61 | CCCCC/C=C\C/C=C\CCCCCCCCC(CCCCCCCC/C=C\C/C=C\CCCCC)N(CCCN(C)C)C(=O)CCCCCCCC(=O)OCC [Compound 37] |  |  |  | 

Second part, the molecule before the results:

Row | SMILES | pKa [2] | Liver Luc @ 0.3 mg/kg dose [1] | Liver Luc @ 1.0 mg/kg dose [1] | Liver Luc @ 0.3 mg/kg (ng luc/g liver) [1] | Liver Luc @ 1.0 mg/kg (ng luc/g liver) [1]
7 | CCCCCC/C=C\C/C=C\COC(=O)CCCCCCCC(CCCCCCCC(=O)OC/C=C\CCCCCC)OC(=O)CCCN(C)C (centres unmarked) [319 (2% PEG), reference compound] |  | 258 ± 67 ng luciferase/g liver | 681 ± 203 ng luciferase/g liver |  | 
8 | CCCCC/C=C\C/C=C\CCCCCCCCC(CCCCCCCC/C=C\C/C=C\CCCCC)NCCCN(C)C [A, reference compound] | 7.05 |  |  |  | 
9 | CCCCC/C=C\C/C=C\CCCCCCCCC(CCCCCCCC/C=C\C/C=C\CCCCC)N(C)CCN(C)C [B, reference compound] | 6.17 |  |  | 95 ± 41 ng luc/g liver | 1131 ± 384 ng luc/g liver
10 | CCCCC/C=C\C/C=C\CCCCCCCCC(CCCCCCCC/C=C\C/C=C\CCCCC)N(CC)CCCN(C)C [C, reference compound] | 6.36 |  |  | 24 ± 4 ng luc/g liver | 77 ± 19 ng luc/g liver
11 | CCCCCCCCCCC(CCCCCCCC)COC(=O)CCCCCC(CCCCCC(=O)OCC(CCCCCCCC)CCCCCCCCCC)N(CCCN(C)C)C(=O)CCCCCCCC (centres unmarked) [Compound 41] |  |  |  | 832 ± 298 ng luc/g liver | 7437 ± 1612 ng luc/g liver
12 | CCCCC(CC)C(=O)OCCCCCCCCCC(CCCCCCCCCOC(=O)C(CC)CCCC)OC(=O)CCCN(C)C (centres unmarked) [Compound 137, reference compound] |  | 281 ± 203 ng luciferase/g liver | 588 ± 303 ng luciferase/g liver |  | 
13 | CCCCC/C=C\C/C=C\CCCCCCCCOCC(CN(C)C)OCCCCCCCC/C=C\C/C=C\CCCCC (centres unmarked) [DLinDMA, reference compound] |  | 13 ± 3 ng luciferase/g liver | 67 ± 20 ng luciferase/g liver |  | 
14 | CCCCC/C=C\C/C=C\CCCCCCCCC(CCCCCCCC/C=C\C/C=C\CCCCC)OC(=O)CCN(C)C [MC2, reference compound] |  | 4 ± 1 ng luciferase/g liver |  |  | 
15 | CCCCC/C=C\C/C=C\CCCCCCCCC(CCCCCCCC/C=C\C/C=C\CCCCC)OC(=O)CCCCN(C)C [MC4, reference compound] |  | 41 ± 10 ng luciferase/g liver |  |  | 
16 | CCCCC/C=C\C/C=C\CCCCCCCCC1(CCCCCCCC/C=C\C/C=C\CCCCC)OC[C@@H](CCN(C)C)O1 [XTC2, reference compound] |  | 80 ± 28 ng luciferase/g liver | 237 ± 99 ng luciferase/g liver |  | 
